{
  "source": "patent US20230270781A1",
  "about": "“TREATMENT OR PREVENTION OF PRO-INFLAMMATORY DISEASES OR CONDITIONS USING INDUCED REGULATORY T (ITREG) CELLS” (RAPA THERAPEUTICS, LLC, priority 2020, published 2023)",
  "assay_type_in_all_cases": "cell-based",
  "key": {"[1]": {"system": "human CD4+ and CD8+ T cells", "test": "RNA expression analysis (Luminex Quantigene) after 3-day de-differentiation culture", "settings": "relative to control Th1/Tc1 culture, temsirolimus 1 µM", "procedure": "At the end of the de-differentiation interval, cells were harvested, RNA was isolated, and RNA expression analysis was performed by Luminex Quantigene method. All results shown represent relative RNA expression, with results normalized to a value of 1.0 for the Th1/Tc1 control culture."}, "[2]": {"system": "human CD4+ and CD8+ T cells", "test": "Western blot for autophagy-related molecule p62 after 3-day de-differentiation culture", "settings": "3-day culture, 1:3 bead-to-T cell ratio; temsirolimus 1.0 or 0.3 µM, Vitamin D 0.01-1.0 nM, Daclizumab 50 µg/ml", "text": "After the 3-day culture interval, the T cells were harvested, and protein was isolated and subjected to western blot analysis for the autophagy-related gene, p62, and the housekeeping gene, Actin."}, "[3]": {"system": "human CD4+ and CD8+ T cells", "test": "Western blot for Raptor, Rictor, p70S6K, SGK1 after 3-day de-differentiation culture", "settings": "relative to control culture without the three inhibitors; temsirolimus 1 µM, Vitamin D 0.03-1.0 nM, Daclizumab 50 µg/ml", "text": "After the 3-day culture interval, the T cells were harvested, and protein was isolated and subjected to western blot analysis for the mTORC1 complex protein, Raptor; the mTORC2 complex protein, Rictor; the post-mTORC1 protein p70S6K; the post-mTORC2 protein, SGK1; and the housekeeping gene, GAPDH."}, "[4]": {"system": "human CD4+ and CD8+ T cells", "test": "T cell yield at day 13 after de-differentiation interval and re-stimulation without inhibitors", "settings": "columns #5 and #6; Vitamin D reduced to 0.01 nM or increased to 1.0 nM", "procedure": "After 10 days (13 days of total culture), the T cells were harvested, enumerated, and evaluated by flow cytometry. FIG. 8 illustrates the effect of culture components during the de-differentiation interval on subsequent T cell yield (at day 13 of culture). […] After the 3-day interval, media was exchanged to fresh X-Vivo 20 without inhibitors, high-level co-stimulation was provided (3:1 bead-to-T cell ratio), and the T cell growth cytokines IL-2 (100 IU/ml) and IL-7 (10 ng/ml) were added. At day 13 of culture, viable T cells were enumerated and the overall yield is shown relative to day 0 input number."}, "[5]": {"system": "human CD4+ and CD8+ T cells", "test": "Western blot for mTORC1 complex protein Raptor after 3-day de-differentiation culture", "text": "After the 3-day culture interval, the T cells were harvested, and protein was isolated and subjected to western blot analysis for the mTORC1 complex protein, Raptor, and the housekeeping gene, Actin."}, "[6]": {"system": "human CD4+ and CD8+ T cells", "test": "Luminex cytokine analysis of de-differentiated T cells cultured in polarization-neutral media", "settings": "Vitamin D concentration during the de-differentiation interval", "procedure": "FIGS. 11A-11D depict the inflammatory Th1/Th17 cytokine analysis of cultured de-differentiated T cells in polarization-neutral media. […] After 3-days, the de-differentiated T cells were co-stimulated (typical bead-to-T cell ratio of 3:1) in media supplemented with the T cell growth cytokines rhu IL-2 (100 IU/ml) and rhu IL-7 (10 ng/ml), which are not potent in terms of inducing T cell polarization. After 10 days in culture (total, day 13 of culture), the T cells were harvested, washed, and re-stimulated with 3/28 beads (3:1 ratio) for 24 hr; the resultant supernatant was harvested and tested for cytokine content by Luminex multi-analyte method. All results shown are expressed as cytokine level in pg per ml per 1 × 10^6 cells/ml/24 hr.\nFIGS. 12A-12D depicts the IL-2 and Th2-type cytokine analysis of cultured de-differentiated T cells in polarization-neutral media. […] After 3-days, the de-differentiated T cells were co-stimulated (typical bead-to-T cell ratio of 3:1) in media supplemented with the T cell growth cytokines rhu IL-2 (100 IU/ml) and rhu IL-7 (10 ng/ml), which are not potent in terms of inducing T cell polarization. […] All results shown are expressed as cytokine level in pg per ml per 1 × 10^6 cells/ml/24 hr."}, "[7]": {"settings": "3-day culture, bead-to-T cell ratio 1:3, Vitamin D 0.1 or 1.0 nM"}},
  "data": [
    {"compound": "C=C1/C(=C\\C=C2/CCC[C@]3(C)[C@@H]([C@H](C)CCCC(C)(C)O)CC[C@@H]23)C[C@@H](O)C[C@@H]1O", "note": "[Vitamin D, 1,25-vitamin D]", "values": [
      {"measurement": "Granzyme B RNA expression", "setting": "[1]; [7]", "result": "reduction"},
      {"measurement": "IFN-gamma RNA expression", "setting": "[1]; [7]", "result": "reduction"},
      {"measurement": "IL-10 RNA expression", "setting": "[1]; [7]", "result": "reduction"},
      {"measurement": "IL-7 receptor alpha RNA expression", "setting": "[1]; Vitamin D 1.0 nM", "result": "not Vitamin D alone"},
      {"measurement": "KLF4 RNA expression", "setting": "[1]; Vitamin D 1.0 nM", "result": "neither temsirolimus nor Vitamin D alone increased"},
      {"measurement": "KLF10 RNA expression", "setting": "[1]; Vitamin D 1.0 nM", "result": "does not act alone to up-regulate"},
      {"measurement": "HIF-1-α RNA expression", "setting": "[1]; Vitamin D 0.1 to 1.0 nM", "result": "did not down-regulate"},
      {"measurement": "Nanog transcription factor RNA expression", "setting": "[1]; Vitamin D 0.1 to 1.0 nM", "result": "does not act alone to up-regulate"},
      {"measurement": "STAT1 RNA expression", "setting": "[1]; Vitamin D 0.1 to 1.0 nM", "result": "acts alone to beneficially down-regulate"},
      {"measurement": "T-BET RNA expression", "setting": "[1]; Vitamin D 0.1 to 1.0 nM", "result": "acts alone to beneficially down-regulate"},
      {"measurement": "p62 expression (western blot, normalized by actin)", "setting": "[2]", "result": "increased p62 expression"},
      {"measurement": "Rictor expression (western blot)", "setting": "[3]", "result": "effective"},
      {"measurement": "T cell yield at day 13 with Vitamin D 0.01 nM or 1.0 nM", "setting": "[4]", "result": "very low yield"},
      {"measurement": "Raptor inhibition at Vitamin D 0.01 nM", "setting": "[5]; Vitamin D level reduced to 0.01 nM", "result": "sub-optimal Raptor inhibition"},
      {"measurement": "Raptor expression at Vitamin D 0.3 nM", "setting": "[5]; culture 7, 0.3 nM Vitamin D, versus 0.1 nM", "result": "higher level of Raptor expression"},
      {"measurement": "IFN-γ and TNF-α levels with Vitamin D 0.01 nM relative to 0.1 nM", "setting": "[6]", "result": "somewhat higher levels"}
    ]}
  ]
}
